Experimental data as given in patent US7638678B2, “Animal model for perimenopause and menopause and methods of inducing ovarian failure” (The Arizona Board of Regents, priority 2002, dated 2009).
“Also recorded” adds a separate entry of the source.

Assays:
[1] = test system: ovarian follicles (primordial, primary, secondary, antral); assay: Histology and follicle counting after VCD dosing; format: in vivo, B6C3F1 mice
Experimental: (§1) Treatment: Immature mice (d28) were weighed and injected i.p. with either 80 mg/kg (1, 2, or 3 times daily), 160 mg/kg (1 or 2 times daily), or 240 mg/kg (once daily) with VCD or sesame oil (vehicle control, i.p.) for 15 d resulting in a total daily exposure of 80, 160, 240, or 320 mg/kg (n=6/group). All reagents were obtained from Sigma-Aldrich (St. Louis, Mo.). Estrous cycles of each animal were monitored daily by vaginal cytology from date of vaginal opening to persistent diestrus in VCD-treated mice, and from date of vaginal opening to d120 in controls. On d8, d10, d12, d14, d15, d30, d37, d46, d57 and d120, animals were weighed, euthanized by CO2 inhalation, and the ovaries, liver and trunk blood were collected. Plasma was separated from whole blood and stored at −20° C., and liver tissues were stored at −80° C. At each time point, adrenals, kidneys, uteri, ovaries, liver, and spleen were removed, grossly examined for lesions and wet tissue weights were recorded. Additional blood samples were collected by retro-orbital puncture and plasma was collected and stored on d58, d79, d91, and d100.
Histology and oocyte counting: Ovaries were trimmed of fat and placed in Bouin's fixative (2 hours), transferred to 70% ethanol, paraffin-embedded and serially sectioned (4-5 μm), mounted and stained with hematoxylin and eosin. In every 20th section (10-13 sections per ovary), pre-antral follicles were classified as primordial (oocyte surrounded by a single layer of flattened granulosa cells), primary (oocyte surrounded by a single layer of cuboidal cells), secondary (oocyte surrounded by multiple layers of granulosa cells) or antral follicles (follicles containing a fluid-filled antrum). Femora were collected on d58 from both control and VCD-treated animals, fixed in 4% paraformaldehyde, transferred to formaldehyde/formic acid (Cal-Rite, Richard Allan Scientific, Kalamazoo, […]., decalcified 24 hours, vacuum embedded in paraffin and 4.5 μm sections of distal metaphysis were prepared and stained with hematoxylin and eosin.
Data Analysis: Oocyte numbers were determined in ovaries from individual animals, averaged, and the means (±SEM) in control versus treated animals were analyzed for significant differences by one-way analysis of variance (ANOVA) with significance set at p<0.05. Post-hoc tests (Tukey-Kramer) were used where appropriate. The differences in plasma hormone concentrations among treatments were analyzed using a one-way ANOVA. The correlation coefficient was determined by regression analysis.

[2] = test system: liver enzymes AST and ALT, hepatocellular vacuolar degeneration, plasma lipids; assay: Assessment of hepatic function and plasma lipids; format: in vivo, B6C3F1 mice
Experimental: Assessment of Hepatic Function: Hepatocellular vacuolar degeneration and enzymatic activity of circulating aspartate aminotransferase (AST) and alanine aminotransferase (ALT) were determined by the Diagnostic Laboratory of the Arizona Health Sciences Center. Total cholesterol and triglycerides were quantified using Sigma reagents 401-25P and 344-20 respectively. HDL was measured by precipitating apoB-containing lipoproteins (Boehringer Mannheim reagent 543004) and assaying cholesterol in the supernatant fraction using the Sigma 401-25P reagent.

androstenedione = assay: Circulating androstenedione RIA; format: in vivo, B6C3F1 mice; conditions: 160 mg/kg 15 d
Experimental: as §1, with “Plasma was separated from whole blood and stored at −20° C., and liver tissues were stored at −80° C.” left out, “Additional blood samples were collected by retro-orbital puncture and plasma was collected and stored on d58, d79, d91, and d100.” left out
Hormone Assays: Plasma FSH was measured by radioimmunoassay (RIA). […] Tubes were centrifuged for 15 minutes at 3000 rpm, supernatant was decanted and pellets were counted in a gamma counter for 1 minute each. […] Plasma 17β-estradiol was measured in unextracted plasma by radioimmunoassay (Diagnostic Products Inc., CA). […] Circulating androstenedione was measured by specific RIA. […] The results of all RIAs were calculated by four-parameter logistic analysis using the software AssayZap (BioSoft, Ferguson, Mo.). […]

estrous cycle = assay: Estrous cyclicity by vaginal cytology; format: in vivo, B6C3F1 mice; conditions: 160 mg/kg i.p.
Experimental: as §1

ovarian follicles [3] = conditions: cited from earlier work
ovarian follicles [4] = conditions: mice, cited from earlier work
[5] = 240 mg/kg (80 mg/kg 3× daily), 15 d, d15
[6] = 240 mg/kg (240 mg/kg 1× daily), 15 d, d15
[7] = 320 mg/kg (160 mg/kg 2× daily), 15 d, d15

Compound: C1CC2OC2CC1C1CO1 (stereo not drawn) [VCD, 4-vinylcyclohexene diepoxide]
- Primary follicles ([1]; 80 mg/kg i.p. daily, 15 d, d15): 38.6 % of control
- Primordial follicles ([1]; 80 mg/kg i.p. daily, 15 d, ovaries d15): 12.1 % of control
- Primary follicles ([1]; 160 mg/kg (80 mg/kg 2× daily), 15 d, d15): 11.3 % of control
- Primordial follicles ([1]; 160 mg/kg (80 mg/kg 2× daily, and 160 mg/kg 1× daily), 15 d, d15): 0 % of control
- Primary follicles ([1]; 160 mg/kg (160 1× daily), 15 d, d15): 2.8 % of control
- Antral follicles on d46 ([1]; 160 mg/kg i.p. 15 d, d46): 2.6 % of control
- Primary follicles on d46 ([1]; 160 mg/kg i.p. 15 d, d46): 0.5 % of control
- Primordial follicles on d46 ([1]; 160 mg/kg i.p. 15 d, d46): no primordial follicles
- Secondary follicles on d46 ([1]; 160 mg/kg i.p. 15 d, d46): 0.7 % of control
- Primary and primordial follicle numbers over time ([1]; 160 mg/kg i.p., d8-d30): reduced (p<0.05) primary and primordial follicle numbers progressively over time
- Antral follicle numbers ([1]; 160 mg/kg, 15 d, d15-d46): progressively reduced
- Primordial follicle loss at the optimal concentration ([1]; 160 mg/kg, injected 1× daily): complete loss of primordial follicles
- Primary follicles [1, 5]: 5.1 % of control
- Primordial follicles [1, 5]: 2.1 % of control
- Primary follicles [1, 6]: 0 % of control
- Primordial follicles [1, 6]: 0 % of control
- Primary follicles [1, 7]: 0.6 % of control
- Primordial follicles [1, 7]: 0 % of control
- Circulating alanine aminotransferase (ALT) ([2]; 160 mg/kg 15 d, d1-d46): not different from controls; also recorded: within the normal range
- Circulating aspartate aminotransferase (AST) ([2]; 160 mg/kg 15 d, d1-d46): not different from controls; also recorded: within the normal range
- Total plasma cholesterol, HDL and triglycerides ([2]; d10, d15 and d37): within the normal range
- Occurrence of hepatocellular vacuolar degeneration ([2]; naive, vehicle-treated control or VCD-treated mice, any time): no difference
- Relative abundance of androgen versus estrogen (androstenedione; d46): 97 % of androgen plus estrogen
- Circulating androstenedione (androstenedione; d46, plasma pools): 0.73 ± 0.05 ng/mL
- Estrous cyclicity (estrous cycle; by d58): all animals were acyclic
- Animals with irregular cycle length (estrous cycle; d15, irregular = less than 3 d or greater than 5 d): 7/24
- Activity on dermal application (ovarian follicles [3]; dermal application in acetone): active
- Follicle loss after other routes of exposure (ovarian follicles [3]; oral, dermal, or inhalation exposure): follicle loss also occurs
- Number of primordial and primary follicles compared to vehicle controls (ovarian follicles [4]; 12 days of dosing): significant reduction
- Numbers of secondary follicles (ovarian follicles [4]; 30 days of dosing): significant reduction
